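Five concentrations, 48 hours, 96-well plates. TGI marks complete inhibition of growth.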
Assays:
Experiment in all cases: NCI anticancer screen, dose series, 48 h
786-0 renal = system: 786-0 renal
A549 NSCLC = system: A549 NSCLC
ACHN renal = system: ACHN renal
BT-549 breast = system: BT-549 breast
CAKI-1 renal = system: CAKI-1 renal
CCRF-CEM leukemia = system: CCRF-CEM leukemia
COLO 205 colon = system: COLO 205 colon
DU-145 prostate = system: DU-145 prostate
EKVX NSCLC = system: EKVX NSCLC
HCC-2998 colon = system: HCC-2998 colon
HCT-116 colon = system: HCT-116 colon
HCT-15 colon = system: HCT-15 colon
HL-60(TB) leukemia = system: HL-60(TB) leukemia
HOP-62 NSCLC = system: HOP-62 NSCLC
HS 578T breast = system: HS 578T breast
HT29 colon = system: HT29 colon
IGROV1 ovarian = system: IGROV1 ovarian
K-562 leukemia = system: K-562 leukemia
KM12 colon = system: KM12 colon
LOX IMVI melanoma = system: LOX IMVI melanoma
M14 melanoma = system: M14 melanoma
MCF7 breast = system: MCF7 breast
MDA-MB-231 breast = system: MDA-MB-231 breast
MDA-MB-435 = system: MDA-MB-435
MDA-N = system: MDA-N
MOLT-4 leukemia = system: MOLT-4 leukemia
NCI-H226 lung = system: NCI-H226 lung
NCI-H23 lung = system: NCI-H23 lung
NCI-H460 lung = system: NCI-H460 lung
NCI-H522 lung = system: NCI-H522 lung
NCI/ADR-RES ovarian = system: NCI/ADR-RES ovarian
OVCAR-3 ovarian = system: OVCAR-3 ovarian
OVCAR-4 ovarian = system: OVCAR-4 ovarian
OVCAR-5 ovarian = system: OVCAR-5 ovarian
OVCAR-8 ovarian = system: OVCAR-8 ovarian
PC-3 prostate = system: PC-3 prostate
RPMI-8226 leukemia = system: RPMI-8226 leukemia
RXF 393 renal = system: RXF 393 renal
SF-268 CNS = system: SF-268 CNS
SF-295 CNS = system: SF-295 CNS
SK-MEL-2 melanoma = system: SK-MEL-2 melanoma
SK-MEL-28 melanoma = system: SK-MEL-28 melanoma
SK-MEL-5 melanoma = system: SK-MEL-5 melanoma
SK-OV-3 ovarian = system: SK-OV-3 ovarian
SN12C renal = system: SN12C renal
SNB-19 CNS = system: SNB-19 CNS
SNB-75 CNS = system: SNB-75 CNS
SR leukemia = system: SR leukemia
SW-620 colon = system: SW-620 colon
T-47D breast = system: T-47D breast
TK-10 renal = system: TK-10 renal
U251 CNS = system: U251 CNS
UACC-257 melanoma = system: UACC-257 melanoma
UACC-62 melanoma = system: UACC-62 melanoma
UO-31 renal = system: UO-31 renal
MALME-3M melanoma = system: MALME-3M melanoma
SF-539 CNS = system: SF-539 CNS

COc1ccccc1C(=O)NO
TGI (786-0 renal): > 100 µM | TGI (A549 NSCLC): > 100 µM | TGI (ACHN renal): > 100 µM | TGI (BT-549 breast): > 100 µM | TGI (CAKI-1 renal): > 100 µM | TGI (CCRF-CEM leukemia): > 100 µM | TGI (COLO 205 colon): > 100 µM | TGI (DU-145 prostate): > 100 µM | TGI (EKVX NSCLC): > 100 µM | TGI (HCC-2998 colon): > 100 µM | TGI (HCT-116 colon): > 100 µM | TGI (HCT-15 colon): > 100 µM | TGI (HL-60(TB) leukemia): > 100 µM | TGI (HOP-62 NSCLC): > 100 µM | TGI (HS 578T breast): > 100 µM | TGI (HT29 colon): > 100 µM | TGI (IGROV1 ovarian): > 100 µM | TGI (K-562 leukemia): > 100 µM | TGI (KM12 colon): > 100 µM | TGI (LOX IMVI melanoma): > 100 µM | TGI (M14 melanoma): > 100 µM | TGI (MCF7 breast): > 100 µM | TGI (MDA-MB-231 breast): > 100 µM | TGI (MDA-MB-435): > 100 µM | TGI (MDA-N): > 100 µM | TGI (MOLT-4 leukemia): > 100 µM | TGI (NCI-H226 lung): > 100 µM | TGI (NCI-H23 lung): > 100 µM | TGI (NCI-H460 lung): > 100 µM | TGI (NCI-H522 lung): > 100 µM | TGI (NCI/ADR-RES ovarian): > 100 µM | TGI (OVCAR-3 ovarian): > 100 µM | TGI (OVCAR-4 ovarian): > 100 µM | TGI (OVCAR-5 ovarian): > 100 µM | TGI (OVCAR-8 ovarian): > 100 µM | TGI (PC-3 prostate): > 100 µM | TGI (RPMI-8226 leukemia): > 100 µM | TGI (RXF 393 renal): > 100 µM | TGI (SF-268 CNS): > 100 µM | TGI (SF-295 CNS): > 100 µM | TGI (SK-MEL-2 melanoma): > 100 µM | TGI (SK-MEL-28 melanoma): > 100 µM | TGI (SK-MEL-5 melanoma): > 100 µM | TGI (SK-OV-3 ovarian): > 100 µM | TGI (SN12C renal): > 100 µM | TGI (SNB-19 CNS): > 100 µM | TGI (SNB-75 CNS): > 100 µM | TGI (SR leukemia): > 100 µM | TGI (SW-620 colon): > 100 µM | TGI (T-47D breast): > 100 µM | TGI (TK-10 renal): > 100 µM | TGI (U251 CNS): > 100 µM | TGI (UACC-257 melanoma): > 100 µM | TGI (UACC-62 melanoma): > 100 µM | TGI (UO-31 renal): > 100 µM

COc1cc(C2OC(N)=C(C#N)C3=C2C(C)CCC3)cc(OC)c1OC (configuration not stated)
TGI (786-0 renal): > 100 µM | TGI (ACHN renal): > 100 µM | TGI (BT-549 breast): > 100 µM | TGI (CAKI-1 renal): > 100 µM | TGI (CCRF-CEM leukemia): > 100 µM | TGI (COLO 205 colon): > 100 µM | TGI (DU-145 prostate): > 100 µM | TGI (EKVX NSCLC): > 100 µM | TGI (HCT-116 colon): > 100 µM | TGI (HCT-15 colon): > 100 µM | TGI (HL-60(TB) leukemia): > 100 µM | TGI (HOP-62 NSCLC): 40.7 µM | TGI (HS 578T breast): > 100 µM | TGI (HT29 colon): > 100 µM | TGI (IGROV1 ovarian): > 100 µM | TGI (K-562 leukemia): > 100 µM | TGI (KM12 colon): > 100 µM | TGI (LOX IMVI melanoma): > 100 µM | TGI (M14 melanoma): > 100 µM | TGI (MALME-3M melanoma): > 100 µM | TGI (MCF7 breast): > 100 µM | TGI (MDA-MB-231 breast): > 100 µM | TGI (MDA-MB-435): > 100 µM | TGI (MDA-N): > 100 µM | TGI (MOLT-4 leukemia): > 100 µM | TGI (NCI-H226 lung): > 100 µM | TGI (NCI-H23 lung): > 100 µM | TGI (NCI/ADR-RES ovarian): > 100 µM | TGI (OVCAR-3 ovarian): > 100 µM | TGI (OVCAR-5 ovarian): > 100 µM | TGI (OVCAR-8 ovarian): > 100 µM | TGI (PC-3 prostate): > 100 µM | TGI (RPMI-8226 leukemia): > 100 µM | TGI (RXF 393 renal): > 100 µM | TGI (SF-268 CNS): > 100 µM | TGI (SF-295 CNS): > 100 µM | TGI (SF-539 CNS): > 100 µM | TGI (SK-MEL-2 melanoma): > 100 µM | TGI (SK-MEL-28 melanoma): > 100 µM | TGI (SK-MEL-5 melanoma): > 100 µM | TGI (SK-OV-3 ovarian): > 100 µM | TGI (SN12C renal): > 100 µM | TGI (SNB-19 CNS): > 100 µM | TGI (SNB-75 CNS): 94.8 µM | TGI (SR leukemia): > 100 µM | TGI (SW-620 colon): > 100 µM | TGI (T-47D breast): > 100 µM | TGI (TK-10 renal): > 100 µM | TGI (U251 CNS): > 100 µM | TGI (UACC-257 melanoma): > 100 µM | TGI (UACC-62 melanoma): > 100 µM | TGI (UO-31 renal): > 100 µM

Reference: PubChem BioAssay (NCI)
